Measurements published in patent EP3046573B1, “AMYLIN ANALOGUES” (Zealand Pharma A/S, priority 2013, dated 2015).
Numbered stars: 1 amine (or outer) side, 2 acyl side, 3 side chain; on linkers, the order of the positions; unused ones are H or OH. Bridge positions count the residues as written; N and C are the ends. Square brackets hold non-standard residues; d marks the D form. Peptide text beside a SMILES is read from it. * marks the point of attachment. C20 diacid = O=C(O)CCCCCCCCCCCCCCCCCCC(=O)*; γGlu = O=C(O)[C@H](CCC(=O)[*:2])N[*:1]; Hyp = O=C(O)[C@@H]1C[C@@H](O)CN1; NMeI = CC[C@H](C)[C@H](NC)C(=O)O; Sar = CNCC(=O)O

Legend:
[1] = tested on: Sprague Dawley (SD) rats; assay: Acute food intake and body weight in normal Sprague Dawley rats; assay type: in vivo; conditions: vehicle-corrected, dose 30 nmol/kg sc, once; for Body weight loss (%) after 96 hours: mean ± SEM, n = 8
Procedure: Sprague Dawley (SD) rats were obtained from Taconic A/S, Denmark. The animals arrived at least 7 days before the study start to allow acclimatization to experimental conditions. From arrival and throughout the study, the rats were housed in groups of 2 (n = 2) in a light-, temperature- and humidity-controlled room (reversed 12/12 h light/dark cycle: lights turned off during day-time and on during night-time; temperature 20-22°C; relative humidity 50-80%). Animals had access ad libitum to food (Altromin™ 1324, Brogaarden A/S, Gentofte, Denmark) and water (domestic quality tap water with citric acid added to pH ∼ 3.6) during the entire study. Stratification of rats was based on body weight (BW) on a cage-by-cage basis; mean BWs per cage were used as the basis for pairing four cages together in a group (n = 8 per group). A vehicle group and positive control group were included in each set of tests. Rats were dosed subcutaneously (sc) once in the morning immediately before turning off the lights, using a body weight-corrected dose of peptide (30 nmol/kg). Dosing volume was 5 ml/kg. Food intake was recorded manually at t = 0 (pre-dose) and at t = 4, 7, 10, 24, 48, 72 and 96 hours after dosing. Body weight was measured daily.
Statistical analyses on body weight were performed using GraphPad™ Prism version 5. The measured parameters were compared using unpaired t tests. Differences were considered statistically significant at p < 0.05. Data are means ± SEM; n =8.

[2] = Solubility assessment (turbidity absorbance at 325 nm); assay type: physicochemical; conditions: stock 2 mg/ml diluted 1:1, ambient temperature (typically 25°C), n=1; for Solubility, Acetate buffer pH 4: 100 mM acetate buffer pH 4.0; for Solubility, Acetate buffer pH 5: 100 mM acetate buffer pH 5.0; for Solubility, Histidine buffer pH 6: 100 mM histidine buffer pH 6.0; for Solubility, Histidine buffer pH 7: 100 mM histidine buffer pH 7.0; for Solubility, Phosphate buffer pH 6: 100 mM phosphate buffer pH 6.0; for Solubility, Phosphate buffer pH 7: 100 mM phosphate buffer pH 7.0; for Solubility, Phosphate buffer pH 7.5: 100 mM phosphate buffer pH7.5
Summary of the method: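 Peptide stock (2 mg/ml, water pH 2.5) diluted 1:1 into 100 mM acetate (pH 4.0, 5.0), histidine (pH 6.0, 7.0) or phosphate (pH 6.0–7.5) buffer; absorbance at 325 nm read at about 25°C, n=1. A325 ≤ 0.02 taken as solubility ≥ 1 mg/ml.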

CC[C@H](C)[C@@H](C(=O)N[C@@H](CC(C)C)C(=O)N[C@@H](CO)C(=O)N[C@@H](CO)C(=O)N[C@H](C(=O)N[C@@H](CCC(=O)O)C(=O)N[C@H](C(=O)NCC(=O)N[C@@H](CO)C(=O)N[C@@H](CCC(=O)O)C(=O)N[C@H](C(=O)N1CCC[C@H]1C(N)=O)[C@@H](C)O)C(C)C)[C@@H](C)O)N(C)C(=O)[C@H](C)NC(=O)CN(C)C(=O)[C@H](Cc1ccccc1)NC(=O)[C@H](CO)NC(=O)[C@H](CO)NC(=O)[C@H](CO)NC(=O)[C@H](CO)NC(=O)[C@H](CCCNC(=N)N)NC(=O)[C@H](Cc1c[nH]cn1)NC(=O)[C@H](CC(C)C)NC(=O)[C@H](Cc1ccccc1)NC(=O)[C@H](CCC(=O)O)NC(=O)[C@H](C)NC(=O)[C@H](CC(C)C)NC(=O)[C@H](CCCNC(=N)N)NC(=O)[C@H](CCC(=O)O)NC(=O)[C@@H](NC(=O)[C@H](C)NC(=O)[C@@H]1CSSC[C@H](NC(=O)[C@H](CCCNC(=N)N)NC(=O)CC[C@H](NC(=O)CCCCCCCCCCCCCCCCCCC(=O)O)C(=O)O)C(=O)N[C@@H](CCC(=O)O)C(=O)N[C@@H]([C@@H](C)O)C(=O)N[C@@H](C)C(=O)N[C@@H]([C@@H](C)O)C(=O)N1)[C@@H](C)O [Compound 134, [19CD]-isoGlu-RC()ETATC()ATERLAEFLHRSSSSF-Gly(Me)-A-Ile(Me)-LSSTEVGSETP-NH2] ({C20 diacid-γGlu}-RCETATCATERLAEFLHRSSSSF[Sar]A[NMeI]LSSTEVGSETP-NH2; disulfide 2-7)
Food intake inhibition (%) after 48 hours [1]: 27%
Body weight loss (%) after 96 hours [1]: 4 ± 3.1 %
Solubility, Acetate buffer pH 4 [2]: SS (SS indicates solubility ≥ 1mg/ml)
Solubility, Acetate buffer pH 5 [2]: SS (SS indicates solubility ≥ 1mg/ml)
Solubility, Histidine buffer pH 6 [2]: SS (SS indicates solubility ≥ 1mg/ml)
Solubility, Histidine buffer pH 7 [2]: SS (SS indicates solubility ≥ 1mg/ml)
Solubility, Phosphate buffer pH 6 [2]: SS (SS indicates solubility ≥ 1mg/ml)
Solubility, Phosphate buffer pH 7 [2]: SS (SS indicates solubility ≥ 1mg/ml)
Solubility, Phosphate buffer pH 7.5 [2]: SS (SS indicates solubility ≥ 1mg/ml)

CC[C@H](C)[C@@H](C(=O)N[C@@H](CC(C)C)C(=O)N[C@@H](CO)C(=O)N[C@@H](CO)C(=O)N[C@H](C(=O)N[C@@H](CCC(=O)O)C(=O)N[C@H](C(=O)NCC(=O)N[C@@H](CO)C(=O)N[C@@H](CCC(=O)O)C(=O)N[C@H](C(=O)N1CCC[C@H]1C(N)=O)[C@@H](C)O)C(C)C)[C@@H](C)O)N(C)C(=O)[C@H](C)NC(=O)CN(C)C(=O)[C@H](Cc1ccccc1)NC(=O)[C@H](CO)NC(=O)[C@H](CO)NC(=O)[C@H](CCCNC(=N)N)NC(=O)[C@H](Cc1c[nH]cn1)NC(=O)[C@H](CC(C)C)NC(=O)[C@H](Cc1ccccc1)NC(=O)[C@H](CCC(=O)O)NC(=O)[C@H](C)NC(=O)[C@H](CC(C)C)NC(=O)[C@H](CCCNC(=N)N)NC(=O)[C@H](CCC(N)=O)NC(=O)[C@@H](NC(=O)[C@H](C)NC(=O)[C@@H]1CSSC[C@H](NC(=O)[C@H](CCCNC(=N)N)NC(=O)CC[C@H](NC(=O)CCCCCCCCCCCCCCCCCCC(=O)O)C(=O)O)C(=O)N[C@@H](CC(N)=O)C(=O)N[C@@H]([C@@H](C)O)C(=O)N[C@@H](C)C(=O)N[C@@H]([C@@H](C)O)C(=O)N1)[C@@H](C)O [Compound 82, [19CD]-isoGlu-RC()NTATC()ATQRLAEFLHRSSF-Gly(Me)-A-Ile(Me)-LSSTEVGSETP-NH2] ({C20 diacid-γGlu}-RCNTATCATQRLAEFLHRSSF[Sar]A[NMeI]LSSTEVGSETP-NH2; disulfide 2-7)
Food intake inhibition (%) after 48 hours [1]: 93%
Body weight loss (%) after 96 hours [1]: 13 ± 1.0%
Solubility, Acetate buffer pH 4 [2]: SS (SS indicates solubility ≥ 1mg/ml)
Solubility, Acetate buffer pH 5 [2]: SS (SS indicates solubility ≥ 1mg/ml)
Solubility, Histidine buffer pH 6 [2]: SS (SS indicates solubility ≥ 1mg/ml)
Solubility, Histidine buffer pH 7 [2]: SS (SS indicates solubility ≥ 1mg/ml)
Solubility, Phosphate buffer pH 6 [2]: SS (SS indicates solubility ≥ 1mg/ml)
Solubility, Phosphate buffer pH 7 [2]: SS (SS indicates solubility ≥ 1mg/ml)
Solubility, Phosphate buffer pH 7.5 [2]: SS (SS indicates solubility ≥ 1mg/ml)

CC[C@H](C)[C@@H](C(=O)N[C@@H](CC(C)C)C(=O)N[C@@H](CO)C(=O)N[C@@H](CO)C(=O)N[C@H](C(=O)N[C@@H](CC(N)=O)C(=O)N[C@H](C(=O)NCC(=O)N[C@@H](CO)C(=O)N[C@@H](CC(N)=O)C(=O)N[C@H](C(=O)N1C[C@H](O)C[C@H]1C(N)=O)[C@@H](C)O)C(C)C)[C@@H](C)O)N(C)C(=O)[C@H](C)NC(=O)CN(C)C(=O)[C@H](Cc1ccccc1)NC(=O)[C@H](CC(N)=O)NC(=O)[C@H](CC(N)=O)NC(=O)[C@H](CO)NC(=O)[C@H](CO)NC(=O)[C@H](CCCNC(=N)N)NC(=O)[C@H](Cc1c[nH]cn1)NC(=O)[C@H](CC(C)C)NC(=O)[C@H](Cc1ccccc1)NC(=O)[C@H](CCC(=O)O)NC(=O)[C@H](C)NC(=O)[C@H](CC(C)C)NC(=O)[C@H](CCCNC(=N)N)NC(=O)[C@H](CCC(N)=O)NC(=O)[C@@H](NC(=O)[C@H](C)NC(=O)[C@@H]1CSSC[C@H](NC(=O)[C@H](CCCNC(=N)N)NC(=O)CC[C@H](NC(=O)CCCCCCCCCCCCCCCCCCC(=O)O)C(=O)O)C(=O)N[C@@H](CC(N)=O)C(=O)N[C@@H]([C@@H](C)O)C(=O)N[C@@H](C)C(=O)N[C@@H]([C@@H](C)O)C(=O)N1)[C@@H](C)O [Compound 105, [19CD]-isoGlu-RC()NTATC()ATQRLAEFLHRSSNNF-Gly(Me)-A-Ile(Me)-LSSTNVGSNT-Hyp-NH2] ({C20 diacid-γGlu}-RCNTATCATQRLAEFLHRSSNNF[Sar]A[NMeI]LSSTNVGSNT[Hyp]-NH2; disulfide 2-7)
Body weight loss (%) after 96 hours [1]: 7 ± 2.4%
Solubility, Acetate buffer pH 4 [2]: SS (SS indicates solubility ≥ 1mg/ml)
Solubility, Acetate buffer pH 5 [2]: SS (SS indicates solubility ≥ 1mg/ml)
Solubility, Histidine buffer pH 6 [2]: SS (SS indicates solubility ≥ 1mg/ml)
Solubility, Histidine buffer pH 7 [2]: SS (SS indicates solubility ≥ 1mg/ml)
Solubility, Phosphate buffer pH 6 [2]: SS (SS indicates solubility ≥ 1mg/ml)
Solubility, Phosphate buffer pH 7 [2]: SS (SS indicates solubility ≥ 1mg/ml)
Solubility, Phosphate buffer pH 7.5 [2]: SS (SS indicates solubility ≥ 1mg/ml)

CC[C@H](C)[C@@H](C(=O)N[C@@H](CC(C)C)C(=O)N[C@@H](CO)C(=O)N[C@@H](CO)C(=O)N[C@H](C(=O)N[C@@H](CC(N)=O)C(=O)N[C@H](C(=O)NCC(=O)N[C@@H](CO)C(=O)N[C@@H](CC(N)=O)C(=O)N[C@H](C(=O)N1CCC[C@H]1C(N)=O)[C@@H](C)O)C(C)C)[C@@H](C)O)N(C)C(=O)[C@H](C)NC(=O)CN(C)C(=O)[C@H](Cc1ccccc1)NC(=O)[C@H](CC(N)=O)NC(=O)[C@H](CC(N)=O)NC(=O)[C@H](CO)NC(=O)[C@H](CO)NC(=O)[C@H](Cc1c[nH]cn1)NC(=O)[C@H](Cc1c[nH]cn1)NC(=O)[C@H](CC(C)C)NC(=O)[C@H](Cc1ccccc1)NC(=O)[C@H](CCC(=O)O)NC(=O)[C@H](C)NC(=O)[C@H](CC(C)C)NC(=O)[C@H](CCCNC(=N)N)NC(=O)[C@H](CCC(N)=O)NC(=O)[C@@H](NC(=O)[C@H](C)NC(=O)[C@@H]1CSSC[C@H](NC(=O)[C@H](CCCNC(=N)N)NC(=O)CC[C@H](NC(=O)CCCCCCCCCCCCCCCCCCC(=O)O)C(=O)O)C(=O)N[C@@H](CC(N)=O)C(=O)N[C@@H]([C@@H](C)O)C(=O)N[C@@H](C)C(=O)N[C@@H]([C@@H](C)O)C(=O)N1)[C@@H](C)O [Compound 1, [19CD]-isoGlu-RC()NTATC()ATQRLAEFLHHSSNNF-Gly(Me)-A-Ile(Me)-LSSTNVGSNTP-NH2] ({C20 diacid-γGlu}-RCNTATCATQRLAEFLHHSSNNF[Sar]A[NMeI]LSSTNVGSNTP-NH2; disulfide 2-7)
Food intake inhibition (%) after 48 hours [1]: 98%
Body weight loss (%) after 96 hours [1]: 9 ± 1.8%
Solubility, Acetate buffer pH 4 [2]: SS (SS indicates solubility ≥ 1mg/ml)
Solubility, Acetate buffer pH 5 [2]: SS (SS indicates solubility ≥ 1mg/ml)
Solubility, Histidine buffer pH 6 [2]: SS (SS indicates solubility ≥ 1mg/ml)
Solubility, Histidine buffer pH 7 [2]: SS (SS indicates solubility ≥ 1mg/ml)
Solubility, Phosphate buffer pH 6 [2]: SS (SS indicates solubility ≥ 1mg/ml)
Solubility, Phosphate buffer pH 7 [2]: SS (SS indicates solubility ≥ 1mg/ml)
Solubility, Phosphate buffer pH 7.5 [2]: SS (SS indicates solubility ≥ 1mg/ml)
